Common to all, as to assay: growth of human tumour cells (NCI), 48 h
The test system of test [1] is UACC-62 melanoma.
For test [2], the system named is SK-MEL-28 melanoma.
In test [3] the test system is NCI-H460 lung.
The test system of test [4] is NCI-H23 lung.
Test [5] deals with COLO 205 colon.
The test system of test [6] is ACHN renal.
The subject of test [7] is DMS 273 small cell lung.
Test [8] relates to MOLT-4 leukemia.
Test [9] concerns MDA-N.
Test [10] has as its system A549 NSCLC.
For test [11], the system named is LXFL 529 NSCLC.

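Exposure lasted 48 hours, with cells grown in 96-well plates and compounds tested at five concentrations. The concentration for full growth arrest is given as TGI.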 Bounds are passed on as bounds.

For the molecule `CC(C)(C)OC(=O)N[C@H]1CC2(C=C(Cl)C(=O)C(Cl)=C2)OC1=O`, the TGI came to 30.6 µM in [1]; 25 µM in test [2]; 56.2 µM in test [3]; 33.7 µM in [4]; 14.9 µM in test [5]; 28.2 µM in [6]. For the same molecule, the TGI is 32.9 µM in test [7]; 15.7 µM in test [8]; 35.5 µM in [9]; above 100 µM in test [10]; 23.8 µM in [11].

The record behind these values is PubChem BioAssay (NCI).
